ChEMBL document CHEMBL5154901, “Development of Predictive Classification Models for Whole Cell Antimycobacterial Activity of Benzothiazinones” (J Med Chem, 2022)
Values after ≈ are worked out from the molar mass of the structure shown.

Assays:
Mycolicibacterium vaccae = experiment: Antimycobacterial activity against Mycobacterium vaccae (JMRC:STI:10670) assessed as reduction in bacterial growth incubated for 42 hrs by serial dilution method; format: functional; conditions: Mycolicibacterium vaccae, JMRC:STI:10670, read-out: MIC
[1] = Cytotoxicity against human HeLa cells assessed as reduction in cell viability incubated for 72 hrs by methylene blue staining based colorimetric assay; format: toxicity
[2] = Metabolic stability in human liver microsomes at 20 uM assessed as intrinsic clearance measured up to 90 mins by LC-HRMS analysis; format: ADME, Microsome; conditions: read-out: CLH
[3] = Metabolic stability in human liver microsomes at 20 uM assessed as half life measured up to 90 mins by LC-HRMS analysis; format: ADME, Microsome

| MIC (Mycolicibacterium vaccae) | microsomal CLint at 20 µM [2] | half-life at 20 µM [3] | SMILES | CC50 at 72 h [1] |
| --- | --- | --- | --- | --- |
| 0.0061 µM (≈ 0.0031 µg/mL) | 15.8 µL/min/mg | 88.9 min | CN(C(=O)CN1CCN(c2nc(=O)c3cc(C(F)(F)F)cc([N+](=O)[O-])c3s2)CC1)c1ccccc1 | 70.3 µM |
| – | 32.1 µL/min/mg | 43.6 min | O=c1nc(N2CCN(Cc3ccc(OC(F)(F)F)cc3)CC2)sc2c([N+](=O)[O-])cc(C(F)(F)F)cc12 | – |
| – | 30.9 µL/min/mg | 45.3 min | O=c1nc(N2CCN(CC(F)(F)c3ccc(F)c(F)c3)CC2)sc2c([N+](=O)[O-])cc(C(F)(F)F)cc12 | – |
| – | 22.4 µL/min/mg | 88.9 min | O=c1nc(N2CCN(C(c3ccccc3)C(F)(F)F)CC2)sc2c([N+](=O)[O-])cc(C(F)(F)F)cc12 (stereo not drawn) | – |
| 0.0599 µM (≈ 0.025 µg/mL) | – | – | CN(CC1(CO)CCCC1)c1nc(=O)c2cc(C(F)(F)F)cc([N+](=O)[O-])c2s1 | > 120 µM |
| 0.0838 µM (≈ 0.039 µg/mL) | – | – | O=c1nc(N2CCn3cc(C(F)(F)F)nc3C2)sc2c([N+](=O)[O-])cc(C(F)(F)F)cc12 | > 107 µM |
| 0.479 µM (≈ 0.25 µg/mL) | – | – | O=C(CN1CCN(c2nc(=O)c3cc(C(F)(F)F)cc([N+](=O)[O-])c3s2)CC1)NCCc1ccccc1 | 87.8 µM |
| – | 23.2 µL/min/mg | 60.3 min | N#Cc1cccc(CN2CCN(c3nc(=O)c4cc(C(F)(F)F)cc([N+](=O)[O-])c4s3)CC2)c1 | – |
| 0.0554 µM (≈ 0.025 µg/mL) | – | – | Cc1ccc([C@@]2(O)CCN(c3nc(=O)c4cc(C(F)(F)F)cc([N+](=O)[O-])c4s3)C2)cc1 | > 111 µM |
| 0.0591 µM (≈ 0.025 µg/mL) | – | – | COc1ccc2c(c1)CN(c1nc(=O)c3cc(C(F)(F)F)cc([N+](=O)[O-])c3s1)C2 | > 118 µM |
| 0.007 µM (≈ 0.0031 µg/mL) | 13.5 µL/min/mg | 103 min | O=c1nc(N2CCN(CC(F)(F)F)CC2)sc2c([N+](=O)[O-])cc(C(F)(F)F)cc12 | > 113 µM |
| 0.0049 µM (≈ 0.00241 µg/mL) | 25.7 µL/min/mg | 54.6 min | O=c1nc(N2CCn3cc(-c4ccc(F)cc4)nc3C2)sc2c([N+](=O)[O-])cc(C(F)(F)F)cc12 | > 102 µM |
| 0.0087 µM (≈ 0.00401 µg/mL) | 14.1 µL/min/mg | 99 min | N#Cc1ccccc1N1CCN(c2nc(=O)c3cc(C(F)(F)F)cc([N+](=O)[O-])c3s2)CC1 | > 108 µM |
| 0.0376 µM (≈ 0.025 µg/mL) | – | – | CN1CCN(C(=O)C(F)(F)C(F)(F)C(F)(F)C(=O)N2CCN(c3nc(=O)c4cc(C(F)(F)F)cc([N+](=O)[O-])c4s3)CC2)CC1 | > 75.2 µM |
| 0.0626 µM (≈ 0.025 µg/mL) | – | – | CN(CC(F)(F)CO)c1nc(=O)c2cc(C(F)(F)F)cc([N+](=O)[O-])c2s1 | 109 µM |
| 0.0274 µM (≈ 0.016 µg/mL) | – | – | O=c1nc(N2CCN(S(=O)(=O)c3ccc(OC(F)(F)F)cc3)CC2)sc2c([N+](=O)[O-])cc(C(F)(F)F)cc12 | 31.5 µM |
| 0.0716 µM (≈ 0.026 µg/mL) | – | – | CN(CCCO)c1nc(=O)c2cc(C(F)(F)F)cc([N+](=O)[O-])c2s1 | 103 µM |
| 0.0286 µM (≈ 0.0125 µg/mL) | – | – | CCCCN(Cc1ccccc1)c1nc(=O)c2cc(C(F)(F)F)cc([N+](=O)[O-])c2s1 | > 114 µM |
| 0.0658 µM (≈ 0.031 µg/mL) | – | – | O=C(CN1CCN(c2nc(=O)c3cc(C(F)(F)F)cc([N+](=O)[O-])c3s2)CC1)N1CCCC1 | > 106 µM |
| 0.0115 µM (≈ 0.00622 µg/mL) | 34.5 µL/min/mg | 40.5 min | O=c1nc(N2CCC(OC3CCN(CC(F)(F)F)CC3)CC2)sc2c([N+](=O)[O-])cc(C(F)(F)F)cc12 | > 93 µM |
| 0.0069 µM (≈ 0.00311 µg/mL) | 26.7 µL/min/mg | 52.5 min | O=c1nc(N2CC[C@H](c3ccccc3)[C@@H](O)C2)sc2c([N+](=O)[O-])cc(C(F)(F)F)cc12 | 73.1 µM |
| 0.0321 µM (≈ 0.0125 µg/mL) | – | – | CCCCCCN(C)c1nc(=O)c2cc(C(F)(F)F)cc([N+](=O)[O-])c2s1 | 75.5 µM |

| SMILES | MIC (Mycolicibacterium vaccae) | microsomal CLint at 20 µM [2] | half-life at 20 µM [3] | CC50 at 72 h [1] |
| --- | --- | --- | --- | --- |
| O=C(O)Cc1ccccc1Nc1c(Cl)cccc1Cl [DICLOFENAC] | – | 222 µL/min/mg | 6.3 min | – |
